Data taken from US10660882B2, “Prophylactic or therapeutic agent for giant cell tumors occurring in bone and soft tissue or for chondrosarcoma” (NIPPON CHEMIPHAR CO., LTD., priority 2012, dated 2020).

Tests used:
GCT cultured cells [1] = assay: Cell proliferation of GCT cultured cells, Cell Counting Kit-8, absorbance at 450 nm; type: cell-based, human; settings: GCT cultured cells case 1, case 2
Method: (§1) GCT cultured cells (case 1, patient with osteoclastoma in a distal part of the right femur; case 2, patient with osteoclastoma in a distal part of the right femur) were cultured on a 96-well culture plate, zaltoprofen was added to the cells at various concentrations (5, 10, 50, 100, and 200 μM), color development was attained with Cell Counting Kit-8 (CCK-8) (Dojindo) 24 hours thereafter, and absorbance was measured at 450 nm 3 hours thereafter (FIG. 1).
In the same manner as that of Example 1, the GOT cultured cells (case 1, case 2) were cultured, a non-steroidal anti-inflammatory agent (acetaminophen, indomethacin, or diclofenac) or troglitazone was added at various concentrations, and absorbance was measured at 450 nm (FIGS. 12 and 13).
(§2) In the same manner as that of Example 1, the GCT cultured cells (case 1, case 2), the cells derived from giant cell tumor of tendon sheath (GCT of tendon sheath), or the cells derived from pigmented villonodular synovitis (diffuse-type GCT) were cultured, and then pioglitazone, a thiazolidine derivative, was added at various concentrations, and absorbance was measured at 450 nm (FIG. 32).

caspase 3 [2] = assay: Caspase 3 staining of chondrosarcoma-derived cell line; type: cell-based; settings: 200 μM zaltoprofen, compared with control
Method: (§3) Further, the aforementioned GCT cultured cells of the case 1 were cultured on chamber cover slide glass, and zaltoprofen was added at different concentrations (100, and 200 μM) 24 hours afterward. Then, 8 hours and 24 hours afterward, the cells were fixed with 4% paraformaldehyde, staining with caspase 3 and Tunel assay were performed, and presence or absence of apoptosis was analyzed. Observation was performed with a fluorescence microscope (BZ-9000) of Keyence, and positive images for each concentration were quantitatively observed (FIGS. 2 to 5).
Further, in the same manner as that of Example 1, the chondrosarcoma-derived cell line was subjected to caspase 3 staining, and presence or absence of apoptosis was analyzed (FIGS. 46 and 47). As a result, it was successfully observed that the caspase 3-positive ratio increased in the cells added with zaltoprofen at a concentration of 200 μM, troglitazone at a concentration of 100 μM, or pioglitazone at a concentration of 200 μM, compared with the control.

[3] = system: cultured cells of pigmented villonodular synovitis; assay: Tunel assay of cultured cells of pigmented villonodular synovitis; type: cell-based, human; settings: 400 μM, compared with control
Method: as §3, with “5). […] Further, in the same manner as that of Example 1, the cultured cells of giant cell tumor of tendon sheath and the cultured cells of pigmented villonodular synovitis were subjected to staining with caspase 3 and Tunel assay, and presence or absence of apoptosis was analyzed (FIGS. 18 to 25). As a result, it was observed that the Tunel-positive ratio and caspase 3-positive ratio increased in the cells added with zaltoprofen at a concentration of 400 μM or troglitazone at a concentration of 2000 μM compared with those observed for the control.” for “5).”

PPARγ [4] = assay: PPARγ immunostaining of cells derived from giant cell tumor of tendon sheath; type: cell-based, human; settings: 400 μM
osteoclastoma (GCT) [5] = assay: Fat cell differentiation in operational excision sample of GCT patient administered with zaltoprofen; type: in vivo, human; settings: 3 tablets per day (80 mg) for about 28 days
Method: (§4) An operational excision sample of a person who had been administered with 3 tablets per day of the zaltoprofen tablets, Soleton Tablet 80 (generic name: zaltoprofen, 80 mg, Nippon Chemiphar) for about 28 days for pain due to the tumor, and then subjected to the operation, and an operational excision sample of a patient with osteoclastoma not administered with zaltoprofen as a control were subjected to staining of PPARγ, and expression of PPARγ was analyzed. Observation was performed with a fluorescence microscope (BZ-9000) of Keyence (FIG. 11).

PPARγ [6] = assay: PPARγ immunostaining of GCT cultured cells; type: cell-based, human; settings: case 1; 10, 50, 100, and 200 μM; 24 hours
Method: The GCT cultured cells of the aforementioned case 1 were cultured on chamber cover slide glass, and 24 hours thereafter, zaltoprofen was added at various concentrations (10, 50, 100, and 200 μM). After 24 hours, the cells were fixed with 4% paraformaldehyde, and staining of PPARγ was performed. Observation was performed with a fluorescence microscope (BZ-9000) of Keyence, and positive images for each concentration were quantitatively observed (FIGS. 6 and 7).

caspase 3 [7] = assay: Caspase 3 staining of cultured cells of giant cell tumor of tendon sheath; type: cell-based, human; settings: 400 μM, compared with control
Method: as §3, with “5). […] Further, in the same manner as that of Example 1, the cultured cells of giant cell tumor of tendon sheath and the cultured cells of pigmented villonodular synovitis were subjected to staining with caspase 3 and Tunel assay, and presence or absence of apoptosis was analyzed (FIGS. 18 to 25). As a result, it was observed that the Tunel-positive ratio and caspase 3-positive ratio increased in the cells added with zaltoprofen at a concentration of 400 μM or troglitazone at a concentration of 2000 μM compared with those observed for the control.” for “5).”

osteoclastoma (GCT) [8] = assay: Tunel assay of operational excision sample of GCT patient administered with zaltoprofen; type: in vivo, human; settings: 3 tablets per day (80 mg) for about 28 days
Method: (§5) An operational excision sample of a person who had been administered with 3 tablets per day of the zaltoprofen tablets, Soleton Tablet 80 (generic name: zaltoprofen, 80 mg, Nippon Chemiphar) for about 28 days for pain due to the tumor, and then subjected to the operation, and an operational excision sample of a patient with osteoclastoma not administered with zaltoprofen as a control were subjected to caspase 3 staining and Tunel assay, and analyzed for the presence or absence of apoptosis. Observation was performed with a fluorescence microscope (BZ-9000) produced by Keyence (FIG. 10). As a result, almost no Tunel-positive cells and caspase 3-positive cells were observed among the cells derived from the GCT patient not administered with zaltoprofen, whilst Tunel-positive cells and caspase 3-positive cells were observed among the cells derived from the patient administered with zaltoprofen.

PPARγ [9] = assay: PPARγ immunostaining of chondrosarcoma-derived cell line; type: cell-based; settings: 200 μM zaltoprofen
[10] = system: chondrosarcoma-derived cell line (H-EMC-SS); assay: Cell proliferation of chondrosarcoma-derived cell line, CCK-8; type: cell-based; settings: various concentrations
PPARγ [11] = assay: PPARγ immunostaining of cells derived from pigmented villonodular synovitis; type: cell-based, human; settings: 400 μM
caspase 3 [12] = assay: Caspase 3 staining of GCT cultured cells; type: cell-based, human; settings: case 1; 100 and 200 μM; 8 hours and 24 hours
Method: as §3

caspase 3 [13] = assay: Caspase 3 staining of cultured cells of pigmented villonodular synovitis; type: cell-based, human; settings: 400 μM, compared with control
Method: as §3, with “5). […] Further, in the same manner as that of Example 1, the cultured cells of giant cell tumor of tendon sheath and the cultured cells of pigmented villonodular synovitis were subjected to staining with caspase 3 and Tunel assay, and presence or absence of apoptosis was analyzed (FIGS. 18 to 25). As a result, it was observed that the Tunel-positive ratio and caspase 3-positive ratio increased in the cells added with zaltoprofen at a concentration of 400 μM or troglitazone at a concentration of 2000 μM compared with those observed for the control.” for “5).”

GCT cultured cells [14] = assay: Fat cell differentiation of GCT cultured cells, HCS LipidTOX Green Neutral Lipid Stain; type: cell-based, human; settings: case 1; 10, 50, and 100 μM; fat cell differentiation-inducing medium 7 to 14 days
Method: (§6) It has been reported that PPARγ is a transcription factor indispensable for fat cell differentiation. Therefore, the GCT cultured cells of the aforementioned case 1 were cultured on chamber cover slide glass, and when they reached confluent, zaltoprofen was added to the cells at various concentrations (10, 50, and 100 μM). From 24 hours thereafter, the cells were cultured in a fat cell differentiation-inducing medium (STREMPRO Adipogenesis Differentiation Kit, Invitrogen) for 7 to 14 days, and differentiation into fat cells was analyzed with HCS LipidTOX Green Neutral Lipid Stain (Invitrogen) (FIGS. 8 and 9).

[15] = system: cultured cells of pigmented villonodular synovitis; assay: Cell proliferation of cultured cells of pigmented villonodular synovitis, CCK-8; type: cell-based, human; settings: various concentrations
Method: as §1, §2

[16] = system: cultured cells of giant cell tumor of tendon sheath; assay: Cell proliferation of cultured cells of giant cell tumor of tendon sheath, CCK-8; type: cell-based, human; settings: various concentrations
Method: as §1, §2

PPARγ [17] = assay: Effect of PPARγ siRNA on GCT cultured cells after addition of drug, CCK-8; type: cell-based, human; settings: 200 μM; 72 hours; GCT cultured cells case 1, case 2
Method: The cells (case 1, case 2) were cultured on a 96-well culture plate, allowed to react with PPARγ siRNA, negative control siRNA, or only with the transfection reagents (Thermo Scientific DharmaFECT, Thermo Scientific) for 48 hours, and further cultured in a usual culture medium for 48 hours. Then, 200 μM of zaltoprofen or 60 μM of troglitazone was added to the cells, 72 hours thereafter, color development was performed with Cell Counting Kit-8 (CCK-8, Dojindo), and 3 hours thereafter, absorbance was measured at 450 nm (FIGS. 14 and 15).

caspase 3 [18] = assay: Caspase 3 staining of operational excision sample of GCT patient administered with zaltoprofen; type: in vivo, human; settings: 3 tablets per day (80 mg) for about 28 days
Method: as §5

[19] = system: cells derived from pigmented villonodular synovitis; assay: Fat cell differentiation of cells derived from pigmented villonodular synovitis, lipid stain; type: cell-based, human; settings: 400 μM, compared with control
Method: as §6
(§7) As described in Example 3, it has been reported that PPARγ is a transcription factor indispensable for fat cell differentiation. Therefore, zaltoprofen was added at a concentration of 400 μM to the cells derived from giant cell tumor of tendon sheath or the cells derived from pigmented villonodular synovitis, and differentiation into fat cells was analyzed (FIGS. 30 and 31). As a result, it was successfully observed that the positive images obtained with HCS LipidTOX Green Neutral Lipid Stain increased in the zaltoprofen-added cells compared with the control.

[20] = system: pigmented villonodular synovitis; assay: MRI and symptom evaluation of patients with recurrence of pigmented villonodular synovitis in the right knee administered with zaltoprofen; type: in vivo, human; settings: person, 3 tablets per day
Method: (§8) Soleton Tablet 80 (generic name: zaltoprofen, 80 mg, Nippon Chemiphar) was administered to a patient with osteoclastoma, a patient with giant cell tumor of tendon sheath, or a patient with pigmented villonodular synovitis at a dose of 3 tablets per day (administered in morning, at noon, and in evening), and the tumor size was evaluated by MRI every several months.

osteoclastoma = assay: MRI evaluation of patient with recurrence of osteoclastoma in the pelvic part administered with zaltoprofen; type: in vivo, human
Method: as §8

[21] = system: cultured cells of giant cell tumor of tendon sheath; assay: Tunel assay of cultured cells of giant cell tumor of tendon sheath; type: cell-based, human; settings: 400 μM, compared with control
Method: as §3, with “5). […] Further, in the same manner as that of Example 1, the cultured cells of giant cell tumor of tendon sheath and the cultured cells of pigmented villonodular synovitis were subjected to staining with caspase 3 and Tunel assay, and presence or absence of apoptosis was analyzed (FIGS. 18 to 25). As a result, it was observed that the Tunel-positive ratio and caspase 3-positive ratio increased in the cells added with zaltoprofen at a concentration of 400 μM or troglitazone at a concentration of 2000 μM compared with those observed for the control.” for “5).”

GCT cultured cells [22] = assay: Tunel assay of GCT cultured cells; type: cell-based, human; settings: case 1; 100 and 200 μM; 8 hours and 24 hours
Method: as §3

PPARγ [23] = assay: PPARγ staining of operational excision sample of GCT patient administered with zaltoprofen; type: in vivo, human; settings: 3 tablets per day (80 mg) for about 28 days
Method: as §4

[24] = system: cells derived from giant cell tumor of tendon sheath; assay: Fat cell differentiation of cells derived from giant cell tumor of tendon sheath, lipid stain; type: cell-based, human; settings: 400 μM, compared with control
Method: as §6, §7

Structure (SMILES): CC(=O)Nc1ccc(O)cc1 [acetaminophen]
- cell proliferation (absorbance at 450 nm) (GCT cultured cells [1]; various concentrations): suppressed in a non-steroidal anti-inflammatory agent concentration-dependent manner

Structure (SMILES): O=C(O)Cc1ccccc1Nc1c(Cl)cccc1Cl [diclofenac]
- cell proliferation (absorbance at 450 nm) (GCT cultured cells [1]; various concentrations): suppressed in a non-steroidal anti-inflammatory agent concentration-dependent manner

Structure (SMILES): CC(C(=O)O)c1ccc2c(c1)CC(=O)c1ccccc1S2 (stereo not drawn) [zaltoprofen]
- caspase 3-positive ratio (caspase 3 [2]): increased
- Tunel-positive ratio [3]: increased
- expression of PPARγ (PPARγ-positive images) (PPARγ [4]): expression of PPARγ was successfully observed
- fat cell differentiation (osteoclastoma (GCT) [5]): fat cell differentiation was observed
- expression of PPARγ (PPARγ-positive cells) (PPARγ [6]): increased in a zaltoprofen concentration-dependent manner
- caspase 3-positive ratio (caspase 3 [7]): increased
- Tunel-positive cells (osteoclastoma (GCT) [8]): observed
- expression of PPARγ (PPARγ-positive images) (PPARγ [9]): expression of PPARγ was successfully observed
- cell proliferation (absorbance) [10]: suppressed in a troglitazone, pioglitazone, or zaltoprofen concentration-dependent manner
- expression of PPARγ (PPARγ-positive images) (PPARγ [11]): expression of PPARγ was successfully observed
- caspase 3-positive ratio (caspase 3 [12]): concentration and administration time-dependent increases
- caspase 3-positive ratio (caspase 3 [13]): increased
- positive images obtained with HCS LipidTOX Green Neutral Lipid Stain (differentiation into fat cells) (GCT cultured cells [14]): increased in a zaltoprofen concentration-dependent manner
- cell proliferation (absorbance) [15]: suppressed in a zaltoprofen or troglitazone concentration-dependent manner
- cell proliferation (absorbance) [16]: suppressed in a zaltoprofen or troglitazone concentration-dependent manner
- effect of the drug on cell proliferation in the PPARγ siRNA addition group (PPARγ [17]): significantly suppressed
- caspase 3-positive cells (caspase 3 [18]): observed
- positive images obtained with HCS LipidTOX Green Neutral Lipid Stain (differentiation into fat cells) [19]: increased
- cell proliferation (absorbance at 450 nm) (GCT cultured cells [1]; 5, 10, 50, 100, and 200 μM, 24 hours): concentration-dependent suppression of the cell proliferation
- MRI imaging effect ([20]; after three months): attenuation of the MRI imaging effect
- tumor size evaluated by MRI ([20]; after two months): shrinkage of tumor
- MRI image of the pelvic part (arrows) (osteoclastoma; after four months of administration): tumor necrosis region
- MRI image of the pelvic part (arrows) (osteoclastoma; after two months of administration): tumor necrosis region
- Tunel-positive ratio [21]: increased
- Tunel-positive ratio (GCT cultured cells [22]): concentration and administration time-dependent increases
- PPARγ-expressing cells (PPARγ [23]): PPARγ-expressing cells were observed
- positive images obtained with HCS LipidTOX Green Neutral Lipid Stain (differentiation into fat cells) [24]: increased

Structure (SMILES): COc1ccc2c(c1)c(CC(=O)O)c(C)n2C(=O)c1ccc(Cl)cc1 [indomethacin]
- cell proliferation (absorbance at 450 nm) (GCT cultured cells [1]; various concentrations): suppressed in a non-steroidal anti-inflammatory agent concentration-dependent manner
